Data published in ChEMBL document CHEMBL1139647, “Synthesis and biological characterization of [3H] (2-amino-4,5,6,7-tetrahydrobenzo[b]thiophen-3-yl)-(4-chlorophenyl)-methanone, the first radiolabelled adenosine A1 allosteric enhancer” (Bioorg Med Chem Lett, 2006).
Active and inactive are the calls of the source. The rule behind the calls is not given here.

Columns and labels:
[1] = target: T1, Adenosine receptor A1 (Homo sapiens) (UniProt P30542); assay: Increase in agonist-specific binding of [3H]CCPA to human adenosine A1 receptor in human brain membranes; format: functional, cell membranes; conditions: Membrane
T1 sequence (whole entry): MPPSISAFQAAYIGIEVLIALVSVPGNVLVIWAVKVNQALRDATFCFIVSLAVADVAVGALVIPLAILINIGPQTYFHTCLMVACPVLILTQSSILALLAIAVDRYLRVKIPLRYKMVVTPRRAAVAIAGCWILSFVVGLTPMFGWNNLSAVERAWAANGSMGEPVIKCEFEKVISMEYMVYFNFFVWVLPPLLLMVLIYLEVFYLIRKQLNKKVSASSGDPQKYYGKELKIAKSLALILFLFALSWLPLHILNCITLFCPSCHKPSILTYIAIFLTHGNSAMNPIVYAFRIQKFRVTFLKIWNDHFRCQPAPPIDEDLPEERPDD

[2] = target: T1, Adenosine receptor A1 (Homo sapiens); assay: Activity measured by decrease in cAMP content employing CHO cells expressing human A1 receptor at 10 uM; format: functional, cell-based; set-up: scale not given: the % may be the effect or the level left
[3] = target: T1, Adenosine receptor A1 (Homo sapiens); assay: Binding density to adenosine A1 receptor in CHO membranes; format: cell membranes; conditions: tested as the 3H-labelled form
[4] = target: T2, Adenosine receptor A3 (Homo sapiens) (UniProt P0DMS8); assay: Increase in binding of [125I]AB-MECA to human adenosine A3 receptor in CHO membranes; format: cell membranes
T2 sequence (whole entry): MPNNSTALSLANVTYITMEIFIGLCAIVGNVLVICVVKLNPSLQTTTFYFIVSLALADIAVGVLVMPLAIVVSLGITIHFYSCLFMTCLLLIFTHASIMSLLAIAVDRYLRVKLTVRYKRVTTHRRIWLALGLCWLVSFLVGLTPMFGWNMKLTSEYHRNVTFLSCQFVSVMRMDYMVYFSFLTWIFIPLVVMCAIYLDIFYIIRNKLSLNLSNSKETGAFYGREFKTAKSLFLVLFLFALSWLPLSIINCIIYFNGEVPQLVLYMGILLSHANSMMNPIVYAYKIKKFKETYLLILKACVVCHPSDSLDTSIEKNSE

[5] = target: T3, Adenosine receptor A1 (Rattus norvegicus) (UniProt P25099); assay: Increase in Bmax for binding of [3H]CCPA to adenosine A1 receptor in rat cortex
T3 sequence (whole entry): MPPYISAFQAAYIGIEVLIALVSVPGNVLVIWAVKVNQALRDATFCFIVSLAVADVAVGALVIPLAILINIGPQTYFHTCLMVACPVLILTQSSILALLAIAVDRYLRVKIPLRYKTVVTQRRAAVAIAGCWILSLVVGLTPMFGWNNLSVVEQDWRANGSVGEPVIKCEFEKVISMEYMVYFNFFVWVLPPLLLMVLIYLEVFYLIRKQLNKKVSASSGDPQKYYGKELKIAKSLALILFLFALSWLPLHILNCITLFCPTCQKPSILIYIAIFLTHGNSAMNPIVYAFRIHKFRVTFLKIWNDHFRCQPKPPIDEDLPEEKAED

[6] = target: T1, Adenosine receptor A1 (Homo sapiens); assay: Increase in Bmax for binding of [3H]CCPA to human adenosine A1 receptor in CHO membranes; format: cell membranes
[7] = target: T3, Adenosine receptor A1 (Rattus norvegicus); assay: Increase in agonist-specific binding of [3H]CCPA to adenosine A1 receptor in rat cortex; format: functional
[8] = target: T1, Adenosine receptor A1 (Homo sapiens); assay: Increase in agonist-specific binding of [3H]CCPA to human adenosine A1 receptor in CHO membranes; format: functional, cell membranes
[9] = target: Adenosine receptor A2a (Homo sapiens) (UniProt P29274); assay: Increase in binding of [3H]CGS 21680 to human adenosine A2A receptor in CHO membranes; format: cell membranes
Sequence of Adenosine receptor A2a (Homo sapiens) (P29274 whole entry): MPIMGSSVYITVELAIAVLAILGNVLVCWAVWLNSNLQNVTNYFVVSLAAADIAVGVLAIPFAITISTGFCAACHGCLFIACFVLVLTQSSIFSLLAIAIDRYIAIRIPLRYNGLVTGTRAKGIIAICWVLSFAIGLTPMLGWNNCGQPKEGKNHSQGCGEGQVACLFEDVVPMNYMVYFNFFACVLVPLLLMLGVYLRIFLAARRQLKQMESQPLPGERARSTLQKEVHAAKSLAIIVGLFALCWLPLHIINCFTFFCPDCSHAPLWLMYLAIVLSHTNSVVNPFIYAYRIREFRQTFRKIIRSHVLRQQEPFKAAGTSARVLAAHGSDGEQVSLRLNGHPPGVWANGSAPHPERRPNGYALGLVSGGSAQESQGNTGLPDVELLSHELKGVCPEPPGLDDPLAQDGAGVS

[10] = target: T1, Adenosine receptor A1 (Homo sapiens); assay: Increase in Bmax for binding of [3H]CCPA to human adenosine A1 receptor in human brain membrane; format: cell membranes

Molecule `Nc1sc2c(c1C(=O)c1ccc(Cl)cc1)CCCC2` has an Activity [1] of 22%, an Activity [2] of 55% and a Bmax [3] of 76.5 pmol/mg. The Activity [4] was “inactive”, the Activity [5] was 15% and the Activity [6] was 65%. For the same molecule, the Activity [7] was 15%, the Activity [8] was 51% and the Activity [9] was “inactive”. For the same molecule, the Activity [10] was 23%.
